# Experimental data reported in patent EP4755886A1 (Chengdu Chipscreen Pharmaceutical Ltd., priority 2023, dated 2025).
# Where two headings read alike, the source gives them in different places.
# What was measured:
# MTAP^-/- HCT-116 cells = experiment: Cell proliferation (MTS), MTAP-/- HCT-116; type: cell-based, human; conditions: for Selectivity: HCT116 WT IC50 relative to HCT116 MTAP-/- IC50; for IC50: Homo sapiens, 240 h, MTAP-/- HCT-116, 10 days with compound, MTS reading, read-out: IC50 HCT116 MTAP-/-
# How it was run: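 MTAP-/- (CRISPR/Cas9 biallelic knockout) or wild-type HCT-116 cells seeded at 100 cells/well, treated next day with 8-point 3-fold dilutions (top 20 µM) for 10 days at 37 °C, 5% CO2. Viability read by MTS; IC50 from four-parameter logistic fit of inhibition rate vs log concentration.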
# CYP450 enzyme 3A4 = biological target: T1, CYP450 enzyme 3A4 (Homo sapiens, UniProt P08684); experiment: CYP inhibition test in human liver microsomes; type: in vitro ADME; conditions: human liver microsomes 0.1 mg/mL
# T1 construct: Liver microsomes (purchased from BIOIVT, Cat. No.: X008070); tissue BIOIVT X008070; host or cells: human liver microsomes
# Procedure: (§1) Experimental materials: human liver microsomes (purchased from BIOIVT);
# (§2) PBS: 0.1 M KH2PO4 and K2HPO4 buffers, pH 7.4.
# MgCl2: a certain amount of MgCl2 was weighed out and prepared into a 20 mM MgCl2 solution with PBS.
# NADPH (Chinese name: reduced nicotinamide adenine dinucleotide phosphate, purchased from Sigma, Cat. No.: 481973-500 mg): a certain amount of NADPH was weighed out and a 5 mM solution of NADPH was prepared with a 20 mM MgCl2 solution, and the final incubation concentration was 1 mM.
# Compounds: 3 mM, 1 mM, 0.3 mM, 0.1 mM, 0.03 mM, 0.01 mM, and 0 mM solutions of the test compounds were prepared with a DMSO-methanol (v:v = 1:9) solution, and the final incubation concentrations were 30 µM, 10 µM, 3 µM, 1 µM, 0.3 µM, 0.1 µM, and 0 µM. 30 µM, 10 µM, 3 µM, 1 µM, 0.3 µM, and 0 µM solutions of the positive compound (ketoconazole) were prepared with a DMSO-methanol (v:v = 1:9) solution, and the final incubation concentrations were 0.3 µM, 0.1 µM, 0.03 µM, 0.01 µM, 0.003 µM, and 0 µM.
# Substrate working solutions: 200 µM and 15 µM solutions of substrate working solutions (testosterone and midazolam) were prepared with PBS, separately, and the final incubation concentrations were 40 µM and 3 µM.
# Liver microsomes (purchased from BIOIVT, Cat. No.: X008070): the liver microsomes were diluted to […] with PBS, and the final incubation concentration was 0.1 mg/mL.
# The prepared test compounds or positive compounds were added to a 96-well plate, and then the prepared human liver microsome working solution and substrate working solution were added. The mixture was mixed well. The mixture was pre-incubated in a thermostat incubator at 37 °C for 5 min, and then the prepared NADPH was added to start the reaction. The mixture was incubated for 5 min or 10 min. After the incubation was completed, a pre-cooled acetonitrile solution containing an internal standard was added to terminate the reaction. After protein precipitation, the mixture was vortexed for 5 min with shaking and then centrifuged at 4000 rpm for 10 min. The supernatant was collected and added to the 96-well plate. The content (peak concentration ratio) of the metabolites of the substrate was determined by an LC-MS/MS method. The residual activity and the half maximal inhibitory concentration (IC50) of the enzyme were calculated based on the detected content.
# Percentage of remaining enzyme activity: The activity of each subtype of CYP450 enzyme was expressed as the amount of metabolite produced, and the percentage of remaining enzyme activity was calculated as follows: [formula]
# The concentrations of the test substances and the corresponding residual activity percentages were fitted using a nonlinear model of Excel software, and the concentration of the test substances at which 50% inhibition of metabolite production was achieved was the IC50 value.
# PK experiment in mice = conditions: mouse, plasma, po, 10 mg/kg
# wild-type HCT-116 cells = experiment: Cell proliferation (MTS), wild-type HCT-116; type: cell-based; conditions: Homo sapiens, 240 h; wild-type HCT-116, 10 days with compound, MTS reading; read-out: IC50 HCT116 WT
# How it was run: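 Wild-type HCT-116 cells were seeded at 100 cells/well in McCoy's 5A/10% FBS. From day 1 they were treated with compound in 3-fold dilutions (initial 20 µM, 8 points) for 10 days at 37° C. Proliferation was read by MTS on day 11, and IC50 was obtained from a four-parameter logistic fit.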
# [1] = Human liver microsome stability; type: in vitro ADME; conditions: pH 7.4; human liver microsomes 0.5 mg/mL, compound 1 µM, NADPH 1 mM, 37 °C
# Procedure: as §1, §2
# MgCl2: a certain amount of MgCl2 was weighed out and prepared into a 16 mM MgCl2 solution with PBS.
# NADPH (Chinese name: reduced nicotinamide adenine dinucleotide phosphate, purchased from Sigma, Cat. No.: 481973-500 mg): a certain amount of NADPH was weighed out and a 4 mM solution of NADPH was prepared with a 16 mM MgCl2 solution, and the final incubation concentration was 1 mM.
# Compounds: 4 µM solutions of the test compounds and positive compounds were prepared with PBS, and the final incubation concentration was 1 µM.
# Liver microsomes (purchased from BIOIVT, Cat. No.: X008070): the liver microsomes were diluted to […] with PBS, and the final incubation concentration was 0.5 mg/mL.
# The prepared test compound or positive compound was added to a test tube, and then the prepared NADPH was added. The mixture was mixed well. The mixture was pre-incubated in a thermostat incubator at 220 rpm at 37 °C for 5 min, and the prepared liver microsomes were added to start the reaction. All steps were performed in replicate wells. At 0 min, 15 min, 30 min, 45 min, and 60 min, a certain volume of glacial acetonitrile solution containing an internal standard was added to the corresponding tube to precipitate the protein. The mixture was vortexed for 5 min with shaking, and then centrifuged at 4000 rpm for 10 min. […] The samples were analyzed by LC-MS/MS.
# The concentrations (peak area ratios) of the example compounds were determined by LC-MS/MS. Rate constants were obtained by plotting "Ln (residual amount of compound %)" versus "incubation time" in Excel, thereby calculating the half-lives and intrinsic clearances of the drugs and providing a basis for the prediction of the in-vivo clearance.
# [formula] CLH = CLint × fu × Qh /(CLint×fu+Qh) [formula]
# Stability in human liver microsomes
# in vivo = conditions: mouse, po, 10 mg/kg
# hERG = biological target: T2, hERG (Homo sapiens, UniProt Q12809); experiment: hERG test (Predictor hERG Fluorescence Polarization Assay Kit); type: binding
# T2 construct: purchased ThermoFisher Scientific PV5365
# Procedure: Predictor™ hERG Fluorescence Polarization Assay Kit (ThermoFisher Scientific, PV5365).
# The procedures in the kit instructions were followed: 4× Predictor™ hERG Tracer Red, 4× E-4031, and 4× test substance solutions (final assay concentration: 10 µM) were prepared in advance. 5 µL Predictor™ hERG FP Assay Buffer and 5 µL Predictor™ hERG Membrane were added sequentially to the Assay Blank group in a 384-well plate. 2.5 µL Predictor™ hERG FP Assay Buffer, 2.5 µL of 4× E-4031, and 2.5 µL of 4× test substance were added to the negative control group, the positive control group, and the test substance group, respectively, and then 5 µL Predictor™ hERG Membrane and 2.5 µL of 4× Predictor™ hERG Tracer Red were sequentially added. The total volume of the experimental system was 10 µL, and three duplicate wells were set for each group. After loading, the plate was gently tapped to mix well and incubated at room temperature (25 °C) in the dark for 3.5 h. After the incubation was completed, the fluorescence polarization value mP was measured on a microplate reader, and G Factor was 2.14.
# The inhibition rate of the test substance was calculated using the following formula: [formula]
# [2] = test system: gene-editing MTAP-/- human colon cancer cell strain HCT116; experiment: Efficacy in MTAP-/- HCT116 subcutaneous xenograft mouse model; type: in vivo, Balb/c nude mice; conditions: 50 mg/kg, PO, qd, 28 days
# Procedure: The blank group contained 40% PEG400 normal saline with 2% DMSO. […] The test substance was intragastrically administered at 10 mg/kg once daily, and MRTX1719 was intragastrically administered at 50 mg/kg once daily. Model control: The vehicle (2% DMSO + 40% PEG400 + 58% normal saline) was intragastrically administered at a dose of 10 mL/kg once daily. Administration was performed for 28 days in total. […] The mice were euthanized on the day when the last administration was completed. […] In the formula, VTt represents the tumor volume of the treatment group at each measurement, and VT0 represents the tumor volume measured when the treatment group is grouped; VCt represents the tumor volume of the vehicle group at each measurement (same as VTt), and VC0 represents the tumor volume measured when the vehicle group is grouped. Data were analyzed using GraphPad Prism 9.0 software and expressed as Mean ± SEM (standard error). Pairwise comparisons between each administration group and the control group were performed using one-way analysis of variance (ANOVA). Variance homogeneity was determined using the Brown-Forsythe method, and variance heterogeneity was determined using the Dunnett's T3 method. Table 7. Efficacy evaluation in HCT116 subcutaneous xenograft mouse model
# [3] = test system: human large cell lung cancer cell line LU99; experiment: Efficacy in LU99 xenograft mouse model; type: in vivo, Balb/c nude mice; conditions: 50 mg/kg, PO, qd, 28 days
# Procedure: The human large cell lung cancer cell line LU99 was purchased from Nanjing Cobioer Biosciences Co., Ltd. (CBP61512) and cultured in RPMI-1640 medium (Gibco) containing 10% fetal bovine serum (Gibco); the test substances were prepared into suspensions at concentrations of 0.3 mg/mL, 1 mg/mL, and 5 mg/mL using a 0.5% aqueous MC solution containing 0.2% Tween 80. Reference Example 6 (MRTX1719) was prepared into a 5 mg/mL clear solution using 40% PEG400 normal saline containing 2% DMSO.
# LU99 cells in the logarithmic growth phase were digested, collected, and counted, and the cell density was adjusted to 2 × 10^7 cells/mL using a 1:1 serum-free medium and matrigel (Corning). 18-20 g of Balb/c nude mice (Beijing Huafukang Biotechnology Co., Ltd.) were inoculated subcutaneously with 100 µL of cell suspension per mouse. On day 12 after inoculation, animals with a mean tumor volume of 116 mm^3 were randomly grouped, with 7 animals in each group. The test substances were intragastrically administered at 3 mg/kg, 10 mg/kg, and 50 mg/kg once daily, and MRTX1719 was intragastrically administered at 50 mg/kg once daily. A vehicle (2% DMSO + 40% PEG400 + 58% normal saline) was intragastrically administered to the blank group at a dose of 10 mL/kg once daily. Administration was performed for 28 days in total.
# After the animals were inoculated with LU99 cells, the tumor volume was measured 2-3 times a week, and the tumor volume was calculated based on length × width^2 × 0.5. On the day when the last administration was completed, except for the mice with tumor regression, which were subjected to discontinuation observation, the remaining mice were euthanized.
# In the formula, VTt represents the tumor volume of the treatment group at each measurement, and VT0 represents the tumor volume measured when the treatment group is grouped; VCt represents the tumor volume of the model control group at each measurement, and VC0 represents the tumor volume measured when the model control group is grouped.
# Data were analyzed using GraphPad Prism 9.0 software and expressed as Mean ± SEM (standard error). Pairwise comparisons between each administration group and the model control group were performed using one-way analysis of variance (ANOVA). Variance homogeneity was determined using the Brown-Forsythe method, and variance heterogeneity was determined using the Dunnett's T3 method. Table 8. Efficacy evaluation in LU99 xenograft mouse model
# PK experiment in rats = type: in vivo; conditions: rat; SD male rats, PO 10 mg/kg, vehicle 0.5% MC/0.2% Tween 80, plasma
# Procedure: The samples were analyzed by LC-MS/MS. […] Table 6. Pharmacokinetic parameters for rats
# [4] = substrate midazolam 3 µM, read-out: IC50 3A4-Midazolam
# [5] = substrate testosterone 40 µM, read-out: IC50 3A4-Testosterone
# T1 sequence (P08684 whole entry): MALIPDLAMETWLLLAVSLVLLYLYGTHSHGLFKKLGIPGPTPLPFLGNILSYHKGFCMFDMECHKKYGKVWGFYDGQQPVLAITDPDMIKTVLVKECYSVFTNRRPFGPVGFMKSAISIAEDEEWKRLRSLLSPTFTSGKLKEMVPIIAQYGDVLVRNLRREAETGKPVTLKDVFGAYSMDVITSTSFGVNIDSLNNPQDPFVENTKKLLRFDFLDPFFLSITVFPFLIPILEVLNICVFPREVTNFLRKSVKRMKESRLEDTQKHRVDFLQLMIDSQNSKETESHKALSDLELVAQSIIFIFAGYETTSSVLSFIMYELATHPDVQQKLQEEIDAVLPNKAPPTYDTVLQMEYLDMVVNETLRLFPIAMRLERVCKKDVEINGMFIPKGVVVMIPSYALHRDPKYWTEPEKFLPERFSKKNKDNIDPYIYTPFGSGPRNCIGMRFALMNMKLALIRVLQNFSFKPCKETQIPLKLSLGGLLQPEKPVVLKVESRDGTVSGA
# T2 sequence (Q12809 whole entry): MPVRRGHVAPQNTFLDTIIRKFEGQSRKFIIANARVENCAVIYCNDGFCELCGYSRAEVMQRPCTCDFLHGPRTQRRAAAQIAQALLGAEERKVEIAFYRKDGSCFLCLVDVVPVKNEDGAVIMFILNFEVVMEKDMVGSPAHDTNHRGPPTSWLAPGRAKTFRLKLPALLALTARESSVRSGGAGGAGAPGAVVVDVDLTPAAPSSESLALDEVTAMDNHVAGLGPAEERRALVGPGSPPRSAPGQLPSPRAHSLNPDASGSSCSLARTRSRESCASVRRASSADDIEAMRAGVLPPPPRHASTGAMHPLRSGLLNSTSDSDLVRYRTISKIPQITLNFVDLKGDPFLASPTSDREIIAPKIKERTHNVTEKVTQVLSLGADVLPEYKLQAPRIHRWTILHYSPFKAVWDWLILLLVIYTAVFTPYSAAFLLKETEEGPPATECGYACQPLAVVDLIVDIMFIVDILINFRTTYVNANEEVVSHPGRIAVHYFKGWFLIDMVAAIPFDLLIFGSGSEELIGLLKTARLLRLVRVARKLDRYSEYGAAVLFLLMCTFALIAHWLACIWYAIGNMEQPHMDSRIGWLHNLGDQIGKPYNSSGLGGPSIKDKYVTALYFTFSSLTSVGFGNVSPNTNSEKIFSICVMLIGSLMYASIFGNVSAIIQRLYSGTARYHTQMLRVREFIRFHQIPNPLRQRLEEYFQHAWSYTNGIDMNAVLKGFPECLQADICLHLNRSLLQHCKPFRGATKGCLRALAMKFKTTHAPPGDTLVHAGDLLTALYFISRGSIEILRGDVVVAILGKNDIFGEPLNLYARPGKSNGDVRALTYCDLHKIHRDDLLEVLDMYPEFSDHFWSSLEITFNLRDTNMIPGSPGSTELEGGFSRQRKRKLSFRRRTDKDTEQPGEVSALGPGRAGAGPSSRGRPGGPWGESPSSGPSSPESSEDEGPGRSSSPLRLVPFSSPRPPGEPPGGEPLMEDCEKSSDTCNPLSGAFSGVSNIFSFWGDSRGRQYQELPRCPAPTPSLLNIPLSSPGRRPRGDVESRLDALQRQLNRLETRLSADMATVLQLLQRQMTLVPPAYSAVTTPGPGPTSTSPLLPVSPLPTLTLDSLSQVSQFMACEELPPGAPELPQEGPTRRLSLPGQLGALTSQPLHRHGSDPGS
Compound,Selectivity (MTAP^-/- HCT-116 cells),IC50 (MTAP^-/- HCT-116 cells) [µM],IC50 (CYP450 enzyme 3A4; [4]) [µM],IC50 (CYP450 enzyme 3A4; [5]) [µM],"AUC(0-t) (PK experiment in mice; female, BALB/c) [µg·h/mL]","Cmax (PK experiment in mice; female, BALB/c) [µg/mL]",IC50 (wild-type HCT-116 cells) [µM],half-life at 1 µM [1] [h],AUC(0-t) (in vivo) [µg·h/mL],Cmax (in vivo) [µg/mL],"inhibition at 3.5 h, 10 µM (hERG; herg membrane fluorescence polarization, 10 µM test substance, three duplicate wells) [%]",IC50 (hERG; only 10 µM tested) [µM],TGI [2] [%],Tumor volume [2] [mm^3],AUC(0-t) (PK experiment in mice) [µg·h/mL],Cmax (PK experiment in mice) [µg/mL],TGI [3] [%],Tumor volume [3] [mm^3],AUC(0-t) (PK experiment in rats) [µg·h/mL],Cmax (PK experiment in rats) [µg/mL]
"CN(C(=O)c1cc2c3c(c(N)nc2cc1Cl)COC3)[C@@H]1COc2cc(C#Cc3cnn(C)c3)ccc21 [Compound 40A, (S)-4-amino-7-chloro-N-methyl-N-(6-((1-methyl-1H-pyrazol-4-yl)ethynyl)-2,3-dihydrobenzofuran-3-yl)-1,3-dihydrofuro[3,4-c]quinoline-8-carboxamide]",105,0.0046,> 30,> 30,10.1 ± 3.5,0.793 ± 0.028,0.483,1.05,–,–,–,–,–,–,–,–,–,–,–,–
"[2H]C([2H])([2H])n1cc(C#Cc2ccc3c(c2)OC[C@H]3N(C)C(=O)c2cc3c(cc2F)nc(N)c2cnn(C)c23)cn1 [Compound 82A, (S)-4-amino-7-fluoro-N,1-dimethyl-N-(6-((1-(methyl-D3)-1H-pyrazol-4-yl)ethynyl)-2,3-dihydrobenzofuran-3-yl)-1H-pyrazolo[4,3-c]quinoline-8-carboxamide]",75,0.0026,–,–,–,–,0.196,–,14.1 ± 4.74,1.43 ± 0.195,–,–,–,–,–,–,–,–,–,–
"[2H]C([2H])([2H])N(C(=O)c1cc2c3c(c(N)nc2cc1Cl)COC3)[C@@H]1COc2cc(C#Cc3cnn(C4CC4)c3)ccc21 [Compound 86A, (S)-4-amino-7-chloro-N-(6-((1-cyclopropyl-1H-pyrazol-4-yl)ethynyl)-2,3-dihydrobenzofuran-3-yl)-N-(methyl-D3)-1,3-dihydrofuro[3,4-c]quinoline-8-carboxamide]",124,0.0087,–,–,–,–,1.08,–,15.3 ± 2.94,1.48 ± 0.187,–,–,–,–,–,–,–,–,–,–
"Cn1ncc(-c2ccc3c(=O)[nH]nc(CN)c3c2)c1-c1c(F)c(Cl)cc(OC2CC2)c1C#N (atropisomer, axis not shown) [Reference Example 6, reference compound]",–,–,2.13,1.95,–,–,–,–,–,–,77.4,< 10,72.21,525.74,1.97 ± 0.316,0.428 ± 0.22,90.96,279.68,0.1 ± 0.103,0.107 ± 0.149
